{"source": "patent US8697387B2", "about": "“Methods for identifying agents and their use for the prevention of restenosis” (DiscoverRx Corporation, priority 2006, dated 2014)", "key": {"[1]": {"system": "BioMAP Systems (human primary cell-based assay systems: endothelial cells, smooth muscle cells, PBMC, fibroblasts)", "experiment": "BioMAP Systems screen scored for desired anti-restenosis parameter modulation", "details": "for Total score for desired parameter modulation, Score (out of 45): 1 point per desired activity present across BioMAP systems of Table 2, paclitaxel average of 11 runs, rapamycin average of 13 runs", "description": "The BioMAP Systems that model the relevant biological processes (smooth muscle cell hyperplasia, tissue remodeling, inflammation etc, including the measurements of readout parameters listed in Table 1), and are used for screening are listed in Table 2. Each of the cells listed in Table 1 can be utilized in one or more of the systems described below. For example, smooth muscle cells are used in CASM3C; CASMNo; SM3C and SMNo systems. Such BioMap systems are generally primary human cell based assays. Compounds are screened in one or more such BioMap systems, usually in at least about two such systems, and may be screened in at least three, at least four, at least five, at least ten, and up to all of the assays set forth in Table 2.\nThese assays are scored according to their modulation of the selected readout parameters.\nHuman umbilical vein endothelial cells (HUVEC) were pooled from multiple donors, cultured according to standard methods, and plated into microtiter plates at passage 4. Human neonatal foreskin fibroblasts (HDF) from 3 donors were pooled and cultured according to standard methods. 24 hr before stimulation with cytokines, confluent HDF in microtitre plates were serum starved. Coronary artery endothelial cells (CAEC), coronary artery smooth muscle cells (CASMC) and umbilical artery smooth muscle cells (SMC) cultured according to standard methods. Peripheral blood mononuclear cells (PBMC) were prepared from buffy coats from normal human donors according to standard methods. Concentrations/amounts of agents added to confluent microtitre plates to build each system were as follows: cytokines (IL-1 beta, 1 ng/ml; TNF-alpha, 5 ng/ml; IFN-gamma, 20 ng/ml; TGF-beta, 5 ng/ml; IL-4, 5 ng/ml), activators (histamine, 10 microM; SAg, 20 ng/ml or LPS, 0.2 ng/ml), PBMC (7.5×10^4 cells/well).\nCompounds were prepared in the solvent as directed, added 1 hr before stimulation of the cells, and were present during the 24 hr stimulation period for the measurement of parameters listed in Table 2. For proliferation, compounds added 1 hr before stimulation of the cells with cytokines, and were present during the 96 hr. If prepared in DMSO, the final concentration of solvent was 0.1% or less.\nThe levels of readout parameters were measured by ELISA. Briefly, microtiter plates are treated, blocked, and then incubated with primary antibodies or isotype control antibodies (0.01-0.5 microg/ml) for 1 hr. After washing, plates were incubated with a peroxidase-conjugated anti-mouse IgG secondary antibody or a biotin-conjugated anti-mouse IgG antibody for 1 hr followed by streptavidin-HRP for 30 min. Plates were washed and developed with TMB substrate and the absorbance (OD) was read at 450 nm (subtracting the background absorbance at 650 nm). Quantitation of TNF-alpha in the LPS system was done using a commercially available kit according to the manufacturer's directions. Proliferation of endothelial cells (HUVEC and CAEC), smooth muscle cels (SMC and CASMC), and PBMC (T cells) was quantitated by Alamar blue or SRB reduction.\nMean OD values for each parameter were calculated from triplicate samples per experiment. The mean value obtained for each parameter in a treated sample was then divided by the mean value from an appropriate control to generate a ratio. All ratios were then log10 transformed. 99% prediction envelopes (grey shading in Figures) were calculated for historical controls."}, "[2]": {"system": "BioMAP Systems cells (SRB total protein, PBMC viability, cell morphology)", "experiment": "Toxicity assessments in BioMAP Systems (SRB, PI, visual)", "method": "Adverse effects of compounds on cells were determined by (1) measuring alterations in total protein (Sulforodhamine B or SRB assay); (2) measuring the viability of peripheral blood mononuclear cells (incorporation of propidium iodide, PI); and (3) microscopic visualization. SRB was performed by staining cells with 0.1% sulforhodamine B after fixation with 10% TCA, and reading wells at 560 nm. PBMC viability was assessed by adding propidium iodide (10 microgram/ml) to PBMC that had been cultured for 24 hours in the presence of activators and measuring the percentage of cells that incorporated dye by flow cytometry after 10 minutes. Samples were assessed visually according to the following scheme: 2.0=cobblestone (unactivated phenotype); 1.0=activated (normal phenotype); 0.5=lacy or sparse; 0.375=rounded; 0.25=sparse and granular; 0.1=no cells in well.\nCellular toxicity in BioMAP Systems is indicated if the SRB parameter (sulforhodamine B, measure of total protein loss) is <−0.3, the PI parameter (propidium iodine, measure of lymphotoxicity) is <−0.1, and the Visual parameter (change in cell morphology) is <−0.6."}, "[3]": {"system": "neointimal hyperplasia after balloon vascular injury", "details": "rat; reported by Pan et al., 2003; cited from earlier work"}, "[4]": {"system": "smooth muscle cell proliferation relative to endothelial cell proliferation", "experiment": "Proliferation of smooth muscle cells relative to endothelial cells in BioMAP systems 3C, SM3C, CANo, CASMNO, CA3C, CASM3C", "type": "cell-based, human", "details": "all conditions, all doses tested, independent of source of primary cells", "description": "One can further refine the selection of drugs for the treatment of restenosis by measuring their relative effects at multiple doses on proliferation of smooth muscle cells and endothelial cells derived from different sources (umbilical cord or coronary artery), and under different growth conditions (proliferation driven by growth factors only, or in the presence of pro-inflammatory factors that are normally found at the restenotic site). Statistical analysis of cell proliferation in BioMAP systems 3C, SM3C, CANo, CASMNO, CA3C, and CASM3C listed in Table 1 was performed for candidate drugs 8-Azaguanine, Amodiaquin Dihydrochloride Dihydrate, Atovaquone, Ciclopirox, Cis-(Z)-Flupentixol Dihydrochloride, Clofilium Tosylate, Monobenzone, Primaquine Diphosphate, Securinine, Syrosingopine, Terconazole, and Trimethylcolchicinic Acid. […]\nThe levels of readout parameters were measured by ELISA. […] Plates were washed and developed with TMB substrate and the absorbance (OD) was read at 450 nm (subtracting the background absorbance at 650 nm). Quantitation of TNF-alpha in the LPS system was done using a commercially available kit according to the manufacturer's directions. Proliferation of endothelial cells (HUVEC and CAEC), smooth muscle cels (SMC and CASMC), and PBMC (T cells) was quantitated by Alamar blue or SRB reduction. […]"}}, "note": "Counter-ions that a name gives are not always drawn. *1 amine or outer side, *2 acyl side, *3 side chain or, on linkers, in order; H or OH if unused. Where a SMILES comes first, the peptide text is derived from it. Bridges are numbered along the chain shown (N, C = ends). Roman numbers before positions name the chains, in order. [ ]: non-standard residue; d: D form. Actinocin(9to1) = Cc1c2oc3c(C)ccc(C(=O)[*:1])c3nc-2c(C(=O)[*:2])c(N)c1=O; NMeV = CN[C@H](C(=O)O)C(C)C; Sar = CNCC(=O)O"}
{"compound": "C[C@]12CC[C@@H]3c4ccc(O)cc4CC[C@H]3[C@@H]1CC[C@@H]2O", "note": "[17beta-estradiol]", "values": [{"measurement": "Doses at which inactive in BioMAP Systems (lower than)", "setting": "[1]", "value": "< 3.3", "unit": "µM"}, {"measurement": "Dose showing signs of cellular toxicity", "setting": "[2]; human", "value": 10, "unit": "µM"}]}
{"compound": "Cc1c2oc3c(C)ccc(C(=O)N[C@@H]4C(=O)N[C@H](C(C)C)C(=O)N5CCC[C@H]5C(=O)N(C)CC(=O)N(C)[C@@H](C(C)C)C(=O)O[C@@H]4C)c3nc-2c(C(=O)N[C@@H]2C(=O)N[C@H](C(C)C)C(=O)N3CCC[C@H]3C(=O)N(C)CC(=O)N(C)[C@@H](C(C)C)C(=O)O[C@@H]2C)c(N)c1=O", "note": "[Actinomycin D] (I: T[dV]P[Sar][NMeV] / II: T[dV]P[Sar][NMeV]; ester I:1-I:C, II:1-II:C; linker I:N-II:N via Actinocin(9to1))", "values": [{"measurement": "Doses at which inactive in BioMAP Systems (lower than)", "setting": "[1]", "value": "< 0.0005", "unit": "µM"}, {"measurement": "Dose showing signs of cellular toxicity", "setting": "[2]; BioMAP Systems", "value": 0.004572, "unit": "µM"}]}
{"compound": "CCN(CC)Cc1cc(Nc2ccnc3cc(Cl)ccc23)ccc1O", "note": "[Amodiaquin Dihydrochloride Dihydrate]", "values": [{"measurement": "Total score for desired parameter modulation, Score (out of 45)", "setting": "[1]", "value": 23}]}
{"compound": "O=C1C(O)=C([C@H]2CC[C@H](c3ccc(Cl)cc3)CC2)C(=O)c2ccccc21", "note": "[Atovaquone]", "values": [{"measurement": "Total score for desired parameter modulation, Score (out of 45)", "setting": "[1]", "value": 22}]}
{"compound": "C=C(C)[C@@H]1CC[C@]2(CO)CC[C@]3(C)[C@H](CC[C@@H]4[C@@]5(C)CC[C@H](O)C(C)(C)[C@@H]5CC[C@]43C)[C@@H]12", "note": "[Betulin]", "values": [{"measurement": "Total score for desired parameter modulation, Score (out of 45)", "setting": "[1]", "value": 31}]}
{"compound": "O=C(O)CCCc1ccc(N(CCCl)CCCl)cc1", "note": "[Chlorambucil]", "values": [{"measurement": "Total score for desired parameter modulation, Score (out of 45)", "setting": "[1]", "value": 30}]}
{"compound": "Cc1cc(C2CCCCC2)n(O)c(=O)c1", "note": "[Ciclopirox Ethanolamine]", "values": [{"measurement": "Total score for desired parameter modulation, Score (out of 45)", "setting": "[1]", "value": 20}]}
{"compound": "Cl.Cl.OCCN1CCN(CC/C=C2/c3ccccc3Sc3ccc(C(F)(F)F)cc32)CC1", "note": "[Cis-(Z)-Flupentixol Dihydrochloride]", "values": [{"measurement": "Total score for desired parameter modulation, Score (out of 45)", "setting": "[1]", "value": 33}]}
{"compound": "CC(=O)N(O)CCCCCNC(=O)CCC(=O)N(O)CCCCCNC(=O)CCC(=O)N(O)CCCCCN", "note": "[Deferoxamine Mesylate]", "values": [{"measurement": "Total score for desired parameter modulation, Score (out of 45)", "setting": "[1]", "value": 26}]}
{"compound": "COc1cc2nc(N3CCN(C(=O)C4COc5ccccc5O4)CC3)nc(N)c2cc1OC", "note": "(stereo not drawn) [Doxazosin Mesylate]", "values": [{"measurement": "Total score for desired parameter modulation, Score (out of 45)", "setting": "[1]", "value": 22}]}
{"compound": "Nc1nc2nn[nH]c2c(=O)[nH]1", "note": "[Drug 8-Azaguanine, 8-Azaguanine]", "values": [{"measurement": "Total score for desired parameter modulation, Score (out of 45)", "setting": "[1]", "value": 28}]}
{"compound": "O=c1ccc2cc(O)c(O)cc2o1", "note": "[Esculetin]", "values": [{"measurement": "Total score for desired parameter modulation, Score (out of 45)", "setting": "[1]", "value": 25}, {"measurement": "Effect on neointimal hyperplasia after balloon vascular injury", "setting": "[3]", "value": "inhibit neointimal hyperplasia"}]}
{"compound": "Oc1ccc(OCc2ccccc2)cc1", "note": "[Monobenzene]", "values": [{"measurement": "Total score for desired parameter modulation, Score (out of 45)", "setting": "[1]", "value": 24}]}
{"compound": "COC(=O)C1=C(C)NC(C)=C(C(=O)OC)C1c1ccccc1[N+](=O)[O-]", "note": "[Nifedipine]", "values": [{"measurement": "Total score for desired parameter modulation, Score (out of 45)", "setting": "[1]", "value": 28}]}
{"compound": "CC(=O)O[C@H]1C(=O)[C@@]2(C)[C@H]([C@H](OC(=O)c3ccccc3)[C@]3(O)C[C@H](OC(=O)[C@H](O)[C@@H](NC(=O)c4ccccc4)c4ccccc4)C(C)=C1C3(C)C)[C@]1(OC(C)=O)CO[C@@H]1C[C@@H]2O", "note": "[Paclitaxel]", "values": [{"measurement": "Total score for desired parameter modulation, Score (out of 45)", "setting": "[1]", "value": "26 ± 2"}, {"measurement": "Activity over tested dose range in BioMAP Systems", "setting": "[1]; tested doses", "value": "active over the entire dose range"}, {"measurement": "Signs of toxicity in BioMAP Systems", "setting": "[2]", "value": "no signs of toxicity"}]}
{"compound": "COc1cc(NC(C)CCCN)c2ncccc2c1", "note": "(stereo not drawn) [Primaquine Diphosphate]", "values": [{"measurement": "Total score for desired parameter modulation, Score (out of 45)", "setting": "[1]", "value": 27}]}
{"compound": "CO[C@H]1C[C@@H]2CC[C@@H](C)[C@@](O)(O2)C(=O)C(=O)N2CCCC[C@H]2C(=O)O[C@H]([C@H](C)C[C@@H]2CC[C@@H](O)[C@H](OC)C2)CC(=O)[C@H](C)/C=C(\\C)[C@@H](O)[C@@H](OC)C(=O)[C@H](C)C[C@H](C)/C=C/C=C/C=C/1C", "note": "[Rapamycin]", "values": [{"measurement": "Total score for desired parameter modulation, Score (out of 45)", "setting": "[1]", "value": "24 ± 1"}, {"measurement": "Signs of toxicity in BioMAP Systems", "setting": "[2]", "value": "no signs of toxicity"}]}
{"compound": "O=C1C=C2C=C[C@@H]3C[C@@]2(O1)[C@H]1CCCCN31", "note": "[Securinine]", "values": [{"measurement": "Total score for desired parameter modulation, Score (out of 45)", "setting": "[1]", "value": 28}]}
{"compound": "CCOC(=O)Oc1c(OC)cc(C(=O)O[C@@H]2C[C@@H]3CN4CCc5c([nH]c6cc(OC)ccc56)[C@H]4C[C@@H]3[C@H](C(=O)OC)[C@H]2OC)cc1OC", "note": "[Syrosingopine]", "values": [{"measurement": "Total score for desired parameter modulation, Score (out of 45)", "setting": "[1]", "value": 22}]}
{"compound": "CC(C)N1CCN(c2ccc(OCC3COC(Cn4cncn4)(c4ccc(Cl)cc4Cl)O3)cc2)CC1", "note": "(stereo not drawn) [Terconazole]", "values": [{"measurement": "Total score for desired parameter modulation, Score (out of 45)", "setting": "[1]", "value": 22}]}
{"compound": "COc1cc2c(c(OC)c1OC)-c1ccc(O)c(=O)cc1C(N)CC2", "note": "(stereo not drawn) [Trimethylcolchicinic Acid]", "values": [{"measurement": "Total score for desired parameter modulation, Score (out of 45)", "setting": "[1]", "value": 29}, {"measurement": "Preferential effect on smooth muscle cell versus endothelial cell proliferation", "setting": "[4]", "value": "preferential effect on smooth muscle cells over endothelial cells"}]}
{"compound": "C[C@@H]1C[C@H]2[C@@H]3CCC4=CC(=O)C=C[C@]4(C)[C@@]3(F)[C@@H](O)C[C@]2(C)[C@@]1(O)C(=O)CO", "note": "[dexamethasone]", "values": [{"measurement": "Signs of toxicity in BioMAP Systems", "setting": "[2]", "value": "no signs of toxicity"}]}
{"compound": "Clofilium Tosylate", "values": [{"measurement": "Total score for desired parameter modulation, Score (out of 45)", "setting": "[1]", "value": 22}]}
